Experimental data taken from patent US20230285389A1, “USE OF CSF-1R KINASE INHIBITOR” (Shanghai Runshi Medical Technology Co., Ltd, priority 2020, published 2023).

Columns and labels:
[1] = test system: CSF-1-induced bone marrow-derived macrophages (BMDM); assay: CSF-1-induced murine-derived macrophage (BMDM) survival (CCK-8); type: cell-based, BALB/c mice; conditions: Mus musculus, 168 h, read-out: IC50 inhibition of cell survival, BMDM (CSF-1)
Method: BALB/c mice (female, 6 weeks old, healthy) were sacrificed. Bone marrow cells were taken from their femurs and tibia, and seeded into a 96-well culture plate at appropriate densities (90 µL per well) after erythrobiasis treatment. 100 ng/mL of CSF-1 factor was added to each well to induce macrophages (Bone marrow-derived macrophages, BMDM), and compounds at various concentrations were added and the plate was allowed for incubation for 7 days. A solvent control group (negative control) was set. After 7 day-exposure of the cells to the compounds, 10 µL of CCK-8 reagent was added to each well. The culture plate was placed in an incubator at 37° C. for 2-4 h, and then was read with a full-wavelength microplate reader setting at the wavelength of 450 nm.

[2] = test system: MC38 subcutaneous xenograft; assay: Immune cell subpopulation scan in tumor tissue of MC38 xenograft model; type: in vivo, mouse
Method: MC38 cells in good condition were re-suspended to 25 million cells/mL. 200 µL of cell suspension was inoculated subcutaneously in the right armpit of each mouse. When the tumor cells formed subcutaneous xenograft in the mice and grew to an average volume of approximately 100 mm^3, the mice were randomly assigned to the dosing group and the control group. The test compounds were prepared at the desired concentrations and corresponding equal amount of solvent was used as a solvent control. The drugs were administrated orally, and administrated once per day for 24 consecutive days.
During the dosing period, the xenograft volumes of the mice and the weights of the mice were measured every 2-4 days. When the MC38 subcutaneous xenograft from the solvent control group of grew to 700-800 mm^3, the experiment was stopped. Fresh tumors removed from the mice were sheared with scissors into fragments no more than 2 mm^3. The digestive enzyme was prepared according to the instructions of Tumor Dissociation Kit. The tumor tissue mass was re-suspended with 2.5 mL of prepared enzyme solution, and was placed into a gentleMACS™ Dissociator instrument for dissociating the tumor with a selected program. After completion of dissociation, the suspension was filtered with a 70 µM filter screen to obtain a cell suspension. The cell suspension was lysed with an erythrocyte lysing agent for 10 min, centrifuged at 300 g for 5 min, and re-suspended with PBS. Desired amount of cells were taken out after cell counting. The cells were first washed twice with PBS. After washing, each sample was re-suspended with 100 µL of PBS and 0.5 µL of the fluorescent antibody prepared according to the manufacturer’s instructions to distinguish dead and live cells was added. The samples were stained in the dark at 4° C. for 30 min. After 30 min, the samples were washed twice with 1 mL of the running buffer and the tubes were centrifuged at 300 g for 5 min at 4° C. The blocking antibody diluent was prepared by adding 2 µL of blocking antibody TruStain fcX™ (anti-mouse CD16/32) per 100 µL running buffer and was added on the basis of the 100 µL system of each sample. After blocking for 10 min, according to the manufacturer’s instructions, the fluorescent antibody corresponding to the surface protein was added to the samples, and the reactant was allowed for incubation at 4° C. for 30 min. At this step, a single staining control and an FMO control were set. Then, the samples were washed twice with 1 mL of the running buffer, and centrifuged at 300 g for 5 min at 4° C. each time.
If only surface proteins were to be examined, after centrifugation, the samples were re-suspended with 300 µL of PBS and immediately input into machines, or the samples were fixed with 4% paraformaldehyde for 15 min, and centrifuged at 500 g for 7 min. The supernatants were discarded and the pellets were re-suspended with PBS and stored for further machine analysis.
If intracellular factors were to be examined as well, when the supernatants were discarded after centrifugation, 100 µL of re-suspended samples were retained. IC fixation solution in Intracellular Fixation & Permeabilization Buffer Set was added to each sample based on the 100 µL volume. The samples were placed at 4° C. for fixation for 30 min. After the fixation was completed, the samples were centrifuged at 500 g for 7 min. 10×Permeabilization Buffer was prepared into 1×membrane destructive solution with triple distilled water. After centrifugation, 2 mL of 1×membrane destructive solution was added to each sample to re-suspend the samples, and the samples were centrifuged at 500 g for 7 min. The process was repeated twice. 1×membrane destructive solution was used to prepare the intracellular fluorescent antibody as recommended in the instructions for antibody. The cells were re-suspended in a system of 100 µL per well, and placed at 4° C. to stain for 30 min. At this step, a single staining control and an FMO control were set. […]

[3] = test system: mouse colon cancer CT-26 xenograft; assay: Growth of subcutaneous CT-26 xenografts, combination with anti-PD-1 antibody; type: in vivo, BALB/c mice; conditions: compound I alone (+ Rat IgG2a isotype), 5 mg/kg orally once a day, 12 days
Method: CT-26 cells were subcutaneously inoculated into the right axillary fossa of BALB/c mice at a cell number of 5 × 10^6 per mouse. When the tumor cells successfully formed subcutaneous xenografts in the mice which further grew to an average volume of approximately 100 mm^3, the mice were randomly assigned to the dosing group and the control group. For the anti-PD-1 antibody group, an anti-PD-1 antibody (Bio X Cell Company, InVivoMAb anti-mouse PD-1 (CD279) (catalog : BE0273)) was administered […] once every three days at 10 mg/kg for 12 days. The control group was administrated the same amount of Hamster Ig (Rat IgG2a), as the isotype control of the anti-PD-1 antibody, and the administration route, dosage and frequency were same as those for the anti-PD-1 antibody group. […] Throughout the experiment, the tumor volume and the mice’s body weights were measured twice a week.
The tumor volume (TV) was calculated as TV = ½×a×b^2, where “a” and “b” are the length and width of the xenograft, respectively.
The relative tumor volume (RTV) was calculated from the results of the measurement according to the following equation:
RTV = Vt/V0, where V0 was the tumor volume measured at the beginning of administration (i.e., d0) and Vt was the tumor volume measured at each point.
The evaluation index of the anti-tumor activity was tumor growth inhibition ratio TGI (%), which was calculated as: […]

[4] = each dose group, oral once per day

CNC(=O)c1cccc2cc(Oc3ccnc(NC(=O)c4ccc(N5C[C@@H](C)N[C@@H](C)C5)cc4)c3)ccc12 [Compound I]
IC50 [1]: 10.2 ± 0.8 nM
infiltration of Granzyme B+CD8+ T cells vs solvent control ([2]; 10 mg/kg group): significantly increased
infiltration of CD206+ M2-biased macrophages in TAMs [2, 4]: further down-regulated
infiltration of TAMs in tumor tissue vs solvent control [2, 4]: significantly reduced
infiltration of CD8+ T cells vs solvent control ([2]; oral once per day): no significant change
infiltration of IFNγ+CD8+ T cells vs solvent control ([2]; oral once per day): no significant change
infiltration of Treg cells ([2]; oral once per day): significantly reduced
TGI / tumor inhibition rate [3]: 45.8%
